The values below come from patent US20250109384A1, “A CELLULAR COMPOSITE” (ALCYOMICS LIMITED, priority 2022, published 2025).

Data set [1] has as its system Y201 models and OA models. Nature of the data set: ELISA of MMP13 and ADAMTS4 in supernatant of modified models and OA models. In kind it is cell-based, human. The settings on record: OA models vs models; for MMP13 concentration in supernatant (ELISA): coating or supplement. As to the method: (§1) To improve the overall quality of the model and encourage aggrecan deposition a range of separate coatings were applied to the 3D scaffold. The applied coatings were selected from human collagen type II, human hyaluronan and human aggrecan to empty 3D scaffolds. Specifically, COL-II was solubilised to 1 mg/mL in 0.5M acetic acid. Stock was diluted 1:500 in PBS and 10 uL layered onto each scaffold. Scaffolds were left to air dry overnight at 2-8 degrees. The next day scaffolds there gently washed in PBS and were ready for use. Hyaluronan was reconstituted into a 1% w/v stock in sterile water. 10 uL was added to each scaffold and left to polymerise at 37 degrees for 1 hour. Following this incubation scaffolds were ready to use. Aggrecan was reconstituted in PBS to create a 100ug/mL stock solution. This stock was used neat, with 10 uL added to each scaffold. Scaffolds were incubated at 37 degrees for several hours prior to use.
(§2) An independent modification was also made to the chondrogenic media. This involved the addition of the HAPLN1 link protein (SEQ ID NO: 1). Specifically, HAPLN1 stock solution was added to chondrogenic media at a working concentration of 100 ng/mL. The resulting medium composition (complete) is outlined in Table 1. L-Ascorbic acid-2-phosphate and HAPLN1 link protein have limited shelf life at 4° C. and so are added to aliquots of incomplete CDM (all components of Table 1 with the exception of L-Ascorbic acid-2-phosphate and HAPLN1 link protein) to create complete CDM on day 7. Preparation of HAPLN1 link protein (Cat #2608-HP RnD sytems) is as follows: • Unit concentration: 25 μg • Solvent: PBS • Reconstitution volume: 250 μl • Stock concentration: 100 μg/mL • Working concentration: 100 ng/mL • Use: 1:1000 dilution for working concentration. E.g. 50 μL of stock into 50 mL of media. • HAPLN1 is reportedly stable for 1 month at 4° C.
(§3) The resulting models were stimulated with cytokines using previously established protocols to create OA models. Following cytokine stimulation, the resulting OA models were harvested and analysed for q-PCR, and immunofluorescent (IF). The supernatant was also harvested and analysed using ELISAs and FRET assays. All analyses were conducted in triplicate.

The test system of the next data set is Y201 OA models. Kind of data set: q-PCR of OA models with coated scaffolds or HAPLN1 modified chondrogenic media. Type of data set: cell-based, human. The settings on record: OA models (cytokine stimulated); for fold change of MMP13 gene expression: scaffold coating or media supplement. As to the method: as §1, §2, §3
Data set [2] concerns Y201 models and OA models. Nature of the data set: Aggrecan / collagen II immunofluorescence (IHC) of models and OA models with coatings or media modification. Type of data set: cell-based, human. The method, then: as §1, §2, §3
The conditions of data set [3]: at 4° C.; cited from earlier work.
The mark [4] stands for this setting: models not stimulated with cytokines.
[5] abbreviates: OA models (cytokine stimulated).

Entries after “also recorded” stand apart in the source; their conditions may differ.

As to “Collagen type II: human collagen type II applied as coating to the 3D scaffold”, the “MMP13 concentration in supernatant (ELISA)” value (shortened to “MMP13 concentration”) in data set [1] was “decrease in the levels of MMP13”. Moreover, the ADAMTS5 gene expression result with Y201 OA models (coated scaffolds) is “increase in expression of ADAMTS5”. In addition, the aggrecan staining entry in data set [2] (setting [4]) was “did not stain positively of aggrecan”.
For the molecule Hyaluronan, the “ADAMTS4 concentration in supernatant (ELISA)” value in data set [1] (coating) is “increase in ADATS4 levels”. In addition, in data set [1], the “MMP13 concentration” value is “decrease in the levels of MMP13”. Also, the “gene expression profile vs uncoated OA models” value in the data set with Y201 OA models (coated scaffolds) is given as “comparable”. For the same molecule, the aggrecan staining result in data set [2] (setting [4]) is on record as “did not stain positively of aggrecan”.
Turning to “aggrecan: human aggrecan applied as coating to the 3D scaffold”, in data set [1], the “MMP13 concentration” value was “increased MMP13 levels”. The “fold change of MMP13 gene expression” value in the data set on Y201 OA models is given as approximately 19 fold. The values for the aggrecan staining result in data set [2] (setting [5]) and in data set [2] (setting [4]) were “aggrecan was detected” and “did not stain for aggrecan”, respectively.

B1: HAPLN1: hyaluronan and proteoglycan link protein 1 (SEQ ID NO: 1), added to chondrogenic media at 100 ng/mL (protein, listed as Homo sapiens)
chain: MKSLLLLVLISICWADHLSDNYTLDHDRAIHIQAENGPHLLVEAEQAKVFSHRGGNVTLPCKFYRDPTAFGSGIHKIRIKWTKLTSDYLKEVDVFVSMGYHKKTYGGYQGRVFLKGGSDSDASLVITDLTLEDYGRYKCEVIEGLEDDTVVVALDLQGVVFPYFPRLGRYNLNFHEAQQACLDQDAVIASFDQLYDAWRGGLDWCNAGWLSDGSVQYPITKPREPCGGQNTVPGVRNYGFWDKDKSRYDVFCFTSNFNGRFYYLIHPTKLTYDEAVQACLNDGAQIAKVGQIFAAWKILGYDRCDAGWLADGSVRYPISRPRRRCSPTEAAVRFVGFPDKKHKLYGVYCFRAYN
Consider B1, for which the “MMP13 concentration” value in data set [1] is given as “increased MMP13 levels”. Besides, the “fold change of MMP13 gene expression” value with Y201 OA models is approximately 6 fold. For the same molecule, in data set [2] (MSCs differentiated to chondrocytes in presence of HAPLN1), the “collagen II production (immunofluorescence)” value is “does not have a negative effect on collagen II production”. Moreover, the aggrecan staining entry is “no staining of aggrecan” in data set [2] (setting [5]) and “did stain for aggrecan; also recorded: significant levels of ACAN protein” in data set [2] (setting [4]). Besides, in data set [3], the stability is 1 month.
